Assay results taken from patent publication US20230143612A1 (Arbutus Biopharma Corporation, priority 2020, published 2023).

Target: PD-L1 His protein / PD-1 Fc protein (Homo sapiens, UniProt Q9NZQ7)
Test: HTRF Assay (PD-1/PD-L1 interaction)
Type: binding
Conditions: PD-L1 His 6 nM, PD-1 Fc 6 nM
How it was run: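 HTRF: PD-L1 His (6 nM final), compound (3-fold dilutions, 20 μM to 0.001 μM final) and PD-1 Fc (6 nM final) preincubated 15 min at room temperature. Anti-human IgG-XL665 and anti-6HIS Tb cryptate (mixed at 6.7 nM and 0.35 nM) then added for 1 h at room temperature before reading.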

PD-L1 His protein / PD-1 Fc protein, sequence (Q9NZQ7 19-238 limits assumed): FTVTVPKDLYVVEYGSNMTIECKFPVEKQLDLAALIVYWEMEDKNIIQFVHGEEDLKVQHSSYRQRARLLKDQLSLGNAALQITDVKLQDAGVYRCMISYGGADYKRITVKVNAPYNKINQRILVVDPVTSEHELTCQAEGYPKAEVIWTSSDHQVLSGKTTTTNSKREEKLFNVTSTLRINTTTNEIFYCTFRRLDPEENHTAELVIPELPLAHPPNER

Structure (SMILES)	IC50 [pM]
COc1nc(-c2cccc(-c3cccc(-c4ccn5c(=O)c(CNC[C@@H]6CCC(=O)N6)cnc5c4)c3Cl)c2Cl)ccc1CN[C@@H](CO)C(=O)O [Example 114, ((6-(2,2′-Dichloro-3′-(4-oxo-3-(((((S)-5-oxopyrrolidin-2-yl)methyl)amino)methyl)-4H-pyrido[1,2-a]pyrimidin-8-yl)-[1,1′-biphenyl]-3-yl)-2-methoxypyridin-3-yl)methyl)-L-serine]	600
COc1nc(-c2cccc(-c3cccc(-c4ccn5c(=O)c(CNC[C@@H]6CCC(=O)N6)cnc5c4)c3Cl)c2Cl)ccc1CNC1(C(=O)O)CC1 [Example 115, (S)-1-(((6-(2,2′-Dichloro-3′-(4-oxo-3-((((5-oxopyrrolidin-2-yl)methyl)amino)methyl)-4H-pyrido[1,2-a]pyrimidin-8-yl)-[1,1′-biphenyl]-3-yl)-2-methoxypyridin-3-yl)methyl)amino)cyclopropane-1-carboxylic acid]	2500
COc1nc(-c2cccc(-c3cccc(-c4ccn5c(=O)c(CN6CC[C@H](C(=O)O)C6)cnc5c4)c3Cl)c2Cl)cnc1CNC[C@@H]1CCC(=O)N1 [Example 116, (S)-1-((8-(2,2′-Dichloro-3′-(6-methoxy-5-(((((S)-5-oxopyrrolidin-2-yl)methyl)amino)methyl)pyrazin-2-yl)-[1,1′-biphenyl]-3-yl)-4-oxo-4H-pyrido[1,2-a]pyrimidin-3-yl)methyl)pyrrolidine-3-carboxylic acid]	300
COc1nc(-c2cccc(-c3cccc(-c4ccn5c(=O)c(CN6CC(C(=O)O)C6)cnc5c4)c3Cl)c2Cl)cnc1CNC[C@@H]1CCC(=O)N1 [Example 117, (S)-1-((8-(2,2′-Dichloro-3′-(6-methoxy-5-((((5-oxopyrrolidin-2-yl)methyl)amino)methyl)pyrazin-2-yl)-[1,1′-biphenyl]-3-yl)-4-oxo-4H-pyrido[1,2-a]pyrimidin-3-yl)methyl)azetidine-3-carboxylic acid]	400
COc1nc(-c2cccc(-c3cccc(-c4ccn5c(=O)c(CNC[C@@H]6CCC(=O)N6)cnc5c4)c3Cl)c2Cl)ccc1CN1CC[C@H](C(=O)O)C1 [Example 118, (S)-1-((6-(2,2′-Dichloro-3′-(4-oxo-3-(((((S)-5-oxopyrrolidin-2-yl)methyl)amino)methyl)-4H-pyrido[1,2-a]pyrimidin-8-yl)-[1,1′-biphenyl]-3-yl)-2-methoxypyridin-3-yl)methyl)pyrrolidine-3-carboxylic acid]	200
COc1nc(-c2cccc(-c3cccc(-c4ccn5c(=O)c(CNC[C@@H]6CCC(=O)N6)cnc5c4)c3Cl)c2Cl)ccc1CN1CC(C(=O)O)C1 [Example 119, (S)-1-((6-(2,2′-Dichloro-3′-(4-oxo-3-((((5-oxopyrrolidin-2-yl)methyl)amino)methyl)-4H-pyrido[1,2-a]pyrimidin-8-yl)-[1,1′-biphenyl]-3-yl)-2-methoxypyridin-3-yl)methyl)azetidine-3-carboxylic acid]	300
COc1nc(-c2cccc(-c3cccc(-c4ccn5c(=O)c(CNC6(C(=O)O)CC6)cnc5c4)c3Cl)c2Cl)ccc1CNC[C@@H]1CCC(=O)N1 [Example 120, (S)-1-(((8-(2,2′-Dichloro-3′-(6-methoxy-5-((((5-oxopyrrolidin-2-yl)methyl)amino)methyl)-pyridin-2-yl)-[1,1′-biphenyl]-3-yl)-4-oxo-4H-pyrido[1,2-a]pyrimidin-3-yl)methyl)amino)-cyclopropane-1-carboxylic acid]	400
COC(=O)C12CCC(CC1)N(Cc1ccc(-c3cccc(-c4cccc(-c5ccn6c(=O)c(CNC[C@@H]7CCC(=O)N7)cnc6c5)c4Cl)c3Cl)nc1OC)C2 [Example 121, Methyl (S)-2-((6-(2,2′-dichloro-3′-(4-oxo-3-((((5-oxopyrrolidin-2-yl)methyl)amino)methyl)-4H-pyrido[1,2-a]pyrimidin-8-yl)-[1,1′-biphenyl]-3-yl)-2-methoxypyridin-3-yl)methyl)-2-azabicyclo[2.2.2]octane-4-carboxylate]	1000
COc1nc(-c2cccc(-c3cccc(-c4ccn5c(=O)c(CNC[C@@H]6CCC(=O)N6)cnc5c4)c3Cl)c2Cl)ccc1CN1CC2(C(=O)O)CCC1CC2 [Example 122, (S)-2-((6-(2,2′-Dichloro-3′-(4-oxo-3-((((5-oxopyrrolidin-2-yl)methyl)amino)methyl)-4H-pyrido[1,2-a]pyrimidin-8-yl)-[1,1′-biphenyl]-3-yl)-2-methoxypyridin-3-yl)methyl)-2-azabicyclo[2.2.2]octane-4-carboxylic acid]	800
COc1nc(-c2cccc(-c3cccc(-c4cnc5c(Cl)c(CNC[C@@H]6CCC(=O)N6)sc5c4)c3Cl)c2Cl)ccc1CNC[C@@H]1CCC(=O)N1 [Example 123, (S)-5-((((3-Chloro-6-(2,2′-dichloro-3′-(6-methoxy-5-(((((S)-5-oxopyrrolidin-2-yl)methyl)amino)methyl)pyridin-2-yl)-[1,1′-biphenyl]-3-yl)thieno[3,2-b]pyridin-2-yl)methyl)amino)methyl)pyrrolidin-2-one]	200
COC(=O)CNCc1ccc(-c2cccc(-c3cccc(-c4ccn5c(=O)c(CNC[C@@H]6CCC(=O)N6)cnc5c4)c3Cl)c2Cl)nc1OC [Example 124, Methyl (S)-((6-(2,2′-dichloro-3′-(4-oxo-3-((((5-oxopyrrolidin-2-yl)methyl)amino)methyl)-4H-pyrido[1,2-a]pyrimidin-8-yl)-[1,1′-biphenyl]-3-yl)-2-methoxypyridin-3-yl)methyl)glycinate]	3800
COc1nc(-c2cccc(-c3cccc(-c4ccn5c(=O)c(CNC[C@@H]6CCC(=O)N6)cnc5c4)c3Cl)c2Cl)ccc1CNCC(=O)O [Example 125, (S)-((6-(2,2′-Dichloro-3′-(4-oxo-3-((((5-oxopyrrolidin-2-yl)methyl)amino)methyl)-4H-pyrido[1,2-a]pyrimidin-8-yl)-[1,1′-biphenyl]-3-yl)-2-methoxypyridin-3-yl)methyl)glycine]	700
COc1nc(-c2cccc(-c3cccc(-c4ccn5c(=O)c(CNC[C@@H](O)CC(=O)O)cnc5c4)c3Cl)c2Cl)ccc1CNC[C@@H]1CCC(=O)N1 [Example 126, (S)-4-(((8-(2,2′-Dichloro-3′-(6-methoxy-5-(((((S)-5-oxopyrrolidin-2-yl)methyl)amino)methyl)pyridin-2-yl)-[1,1′-biphenyl]-3-yl)-4-oxo-4H-pyrido[1,2-a]pyrimidin-3-yl)methyl)amino)-3-hydroxybutanoic acid]	400
COc1nc(-c2cccc(-c3cccc(-c4ccn5c(=O)c(CN6CC7(C(=O)O)CCC6CC7)cnc5c4)c3Cl)c2Cl)ccc1CNC[C@@H]1CCC(=O)N1 [Example 127, (S)-2-((8-(2,2′-Dichloro-3′-(6-methoxy-5-((((5-oxopyrrolidin-2-yl)methyl)amino)methyl)pyridin-2-yl)-[1,1′-biphenyl]-3-yl)-4-oxo-4H-pyrido[1,2-a]pyrimidin-3-yl)methyl)-2-azabicyclo[2.2.2]octane-4-carboxylic acid]	300
COc1nc(-c2cccc(-c3cccc(-c4ccn5c(=O)c(CN6CCC[C@H]6C(=O)O)cnc5c4)c3Cl)c2Cl)ccc1CNC[C@@H]1CCC(=O)N1 [Example 128, ((8-(2,2′-Dichloro-3′-(6-methoxy-5-(((((S)-5-oxopyrrolidin-2-yl)methyl)amino)methyl)pyridin-2-yl)-[1,1′-biphenyl]-3-yl)-4-oxo-4H-pyrido[1,2-a]pyrimidin-3-yl)methyl)-L-proline]	200
COc1nc(-c2cccc(-c3cccc(-c4ccn5c(=O)c(CN6CCCC[C@H]6C(=O)O)cnc5c4)c3Cl)c2Cl)ccc1CNC[C@@H]1CCC(=O)N1 [Example 129, (S)-1-((8-(2,2′-Dichloro-3′-(6-methoxy-5-(((((S)-5-oxopyrrolidin-2-yl)methyl)amino)methyl)pyridin-2-yl)-[1,1′-biphenyl]-3-yl)-4-oxo-4H-pyrido[1,2-a]pyrimidin-3-yl)methyl)piperidine-2-carboxylic acid]	300
COc1nc(-c2cccc(-c3cccc(-c4ccn5c(=O)c(CN6CCC[C@H](C(=O)O)C6)cnc5c4)c3Cl)c2Cl)ccc1CNC[C@@H]1CCC(=O)N1 [Example 130, (S)-1-((8-(2,2′-Dichloro-3′-(6-methoxy-5-(((((S)-5-oxopyrrolidin-2-yl)methyl)amino)methyl)pyridin-2-yl)-[1,1′-biphenyl]-3-yl)-4-oxo-4H-pyrido[1,2-a]pyrimidin-3-yl)methyl)piperidine-3-carboxylic acid]	300
COc1nc(-c2cccc(-c3cccc(-c4ccn5c(=O)c(CNC[C@H](C)O)cnc5c4)c3Cl)c2Cl)ccc1CNC[C@@H]1CCC(=O)N1 [Example 131, 8-(2,2′-dichloro-3′-(6-methoxy-5-(((((S)-5-oxopyrrolidin-2-yl)methyl)amino)methyl)pyridin-2-yl)-[1,1′-biphenyl]-3-yl)-3-((((S)-2-hydroxypropyl)amino)methyl)-4H-pyrido[1,2-a]pyrimidin-4-one]	1700
COc1nc(-c2cccc(-c3cccc(-c4ccn5c(=O)c(CNC[C@@H](C)O)cnc5c4)c3Cl)c2Cl)ccc1CNC[C@@H]1CCC(=O)N1 [Example 132, 8-(2,2′-Dichloro-3′-(6-methoxy-5-(((((S)-5-oxopyrrolidin-2-yl)methyl)amino)methyl)pyridin-2-yl)-[1,1′-biphenyl]-3-yl)-3-((((R)-2-hydroxypropyl)amino)methyl)-4H-pyrido[1,2-a]pyrimidin-4-one]	1700
COc1nc(-c2cccc(-c3cccc(-c4ccn5c(=O)c(CNCC(C)(C)O)cnc5c4)c3Cl)c2Cl)ccc1CNC[C@@H]1CCC(=O)N1 [Example 133, (S)-8-(2,2′-Dichloro-3′-(6-methoxy-5-((((5-oxopyrrolidin-2-yl)methyl)amino)methyl)pyridin-2-yl)-[1,1′-biphenyl]-3-yl)-3-(((2-hydroxy-2-methylpropyl)amino)methyl)-4H-pyrido[1,2-a]pyrimidin-4-one]	1500
